Source: PMC9090415, “Discovery of small molecule inhibitors of Plasmodium falciparum apicoplast DNA polymerase” (Journal of Enzyme Inhibition and Medicinal Chemistry, 2022)

Biological target: P. falciparum apicoplast DNA polymerase (Pf-apPOL) (Plasmodium falciparum, UniProt Q8ILY1)
Assay: Fluorescence-based high-throughput DNA polymerase assay (molecular beacon), primary screen and dose-response;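 as to % inhibition ApPOL 90': test concentration in µM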;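 as to % inhibition apPOL 180': test concentration in µM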
Assay type: biochemical
Summary of the method: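 Single-point screening used 10 µM compound with 20 nM polymerase, 20 nM hairpin substrate and 6 µM dNTPs for 90 min at 25 °C. Confirmatory titrations (2.5–80 µM) followed fluorescence at three times, and IC50 was derived from a fit including a cooperativity term n.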

[1] = primary screen value of the 186 hits; unit not given; 90 min, 10 µM

Chain of P. falciparum apicoplast DNA polymerase (Pf-apPOL) (Q8ILY1 entry or part of it): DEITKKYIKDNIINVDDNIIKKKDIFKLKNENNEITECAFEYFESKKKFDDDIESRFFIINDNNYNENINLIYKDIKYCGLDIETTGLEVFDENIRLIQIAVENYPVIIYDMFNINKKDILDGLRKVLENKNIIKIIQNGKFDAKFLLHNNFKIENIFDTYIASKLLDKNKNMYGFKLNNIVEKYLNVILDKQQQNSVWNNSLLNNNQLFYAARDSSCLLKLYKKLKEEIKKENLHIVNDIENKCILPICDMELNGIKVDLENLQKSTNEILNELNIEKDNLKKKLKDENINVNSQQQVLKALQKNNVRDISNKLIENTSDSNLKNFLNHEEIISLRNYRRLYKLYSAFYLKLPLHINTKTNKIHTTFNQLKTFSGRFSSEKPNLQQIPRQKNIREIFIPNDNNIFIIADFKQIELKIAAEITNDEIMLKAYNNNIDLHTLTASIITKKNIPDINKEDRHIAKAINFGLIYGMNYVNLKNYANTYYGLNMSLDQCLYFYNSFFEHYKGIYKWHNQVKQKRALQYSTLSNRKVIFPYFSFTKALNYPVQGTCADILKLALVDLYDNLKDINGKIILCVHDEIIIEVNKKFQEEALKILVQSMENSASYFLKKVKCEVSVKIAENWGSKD

## O=C(Nc1c2c(nn1-c1ccccc1)CSC2)c1ccco1 [KU0055213]
DRC-1; concentration 2.5; 10'
  % inhibition Apo pol 10': 28.0848%
DRC-1; concentration 2.5; 90'
  % inhibition Apol 90': 10.2281%
DRC-1; concentration 2.5; 180'
  % inhibition apPOL 180': -1.233%
DRC-1; concentration 5; 10'
  % inhibition Apo pol 10': 39.8975%
DRC-1; concentration 5; 90'
  % inhibition Apol 90': 17.5159%
DRC-1; concentration 5; 180'
  % inhibition apPOL 180': 1.991%
DRC-1; concentration 10; 10'
  % inhibition Apo pol 10': 66.5971%
DRC-1; concentration 10; 90'
  % inhibition Apol 90': 43.2893%
DRC-1; concentration 10; 180'
  % inhibition apPOL 180': 23.4061%
DRC-1; concentration 20; 10'
  % inhibition Apo pol 10': 82.6519%
DRC-1; concentration 20; 90'
  % inhibition Apol 90': 64.6698%
DRC-1; concentration 20; 180'
  % inhibition apPOL 180': 46.0885%
DRC-1; concentration 40; 10'
  % inhibition Apo pol 10': 90.9141%
DRC-1; concentration 40; 90'
  % inhibition Apol 90': 82.7699%
DRC-1; concentration 40; 180'
  % inhibition apPOL 180': 72.6518%
DRC-1; concentration 80 (unit not given); 10'
  % inhibition Apo pol 10': 92.3383%
DRC-1; concentration 80; 90'
  % inhibition Apol 90': 91.2919%
DRC-1; concentration 80; 180'
  % inhibition apPOL 180': 88.3514%
DRC-2; 5'; concentration 2.5
  % inhibition Apo pol 5': 24%
DRC-2; 5'; concentration 5
  % inhibition Apo pol 5': 37%
DRC-2; 5'; concentration 40
  % inhibition Apo pol 5': 59%
DRC-2; 5'; concentration 80
  % inhibition Apo pol 5': 59%
DRC-2; 40'; concentration 20
  % inhibition Apol 40': 59%
DRC-2; 40'; concentration 40
  % inhibition Apol 40': 70%
DRC-2; 90'; concentration 10
  % inhibition ApPOL 90': 37%
DRC-2; 90'; concentration 40
  % inhibition ApPOL 90': 70%
DRC-2; 180'; concentration 10
  % inhibition apPOL 180': 24%
DRC-2; concentration 2.5; 5'
  % inhibition Apo pol 5': 24%
DRC-2; concentration 2.5; 40'
  % inhibition Apol 40': 21%
DRC-2; concentration 2.5; 90'
  % inhibition ApPOL 90': 17%
DRC-2; concentration 2.5; 180'
  % inhibition apPOL 180': 9%
DRC-2; concentration 5; 5'
  % inhibition Apo pol 5': 37%
DRC-2; concentration 5; 40'
  % inhibition Apol 40': 36%
DRC-2; concentration 5; 90'
  % inhibition ApPOL 90': 32%
DRC-2; concentration 5; 180'
  % inhibition apPOL 180': 20%
DRC-2; concentration 10; 5'
  % inhibition Apo pol 5': 44%
DRC-2; concentration 10; 40'
  % inhibition Apol 40': 42%
DRC-2; concentration 10; 90'
  % inhibition ApPOL 90': 37%
DRC-2; concentration 10; 180'
  % inhibition apPOL 180': 24%
DRC-2; concentration 20; 5'
  % inhibition Apo pol 5': 52%
DRC-2; concentration 20; 40'
  % inhibition Apol 40': 59%
DRC-2; concentration 20; 90'
  % inhibition ApPOL 90': 57%
DRC-2; concentration 20; 180'
  % inhibition apPOL 180': 49%
DRC-2; concentration 40; 5'
  % inhibition Apo pol 5': 59%
DRC-2; concentration 40; 40'
  % inhibition Apol 40': 70%
DRC-2; concentration 40; 90'
  % inhibition ApPOL 90': 70%
DRC-2; concentration 40; 180'
  % inhibition apPOL 180': 65%
DRC-2; concentration 80; 5'
  % inhibition Apo pol 5': 59%
DRC-2; concentration 80; 40'
  % inhibition Apol 40': 75%
DRC-2; concentration 80; 90'
  % inhibition ApPOL 90': 77%
DRC-2; concentration 80; 180'
  % inhibition apPOL 180': 78%
[1]
  DNA Pol: 50
Primary screen value; head prints only 'DNA Pol'; 90 min, 10 µM
  DNA Pol: 50

## CCCCSc1nnc2c(n1)OC(c1ccc([N+](=O)[O-])o1)Nc1ccccc1-2 (centres unmarked) [KU0065811]
DRC-1; 10'; concentration 2.5
  % inhibition Apo pol 10': 24.76%
DRC-1; 10'; concentration 5
  % inhibition Apo pol 10': 28.8752%
DRC-1; 10'; concentration 10
  % inhibition Apo pol 10': 64.0477%
DRC-1; 10'; concentration 20
  % inhibition Apo pol 10': 79.0403%
DRC-1; 10'; concentration 40
  % inhibition Apo pol 10': 87.9065%
DRC-1; 10'; concentration 80
  % inhibition Apo pol 10': 83.2493%
DRC-1; 90'; concentration 2.5
  % inhibition Apol 90': 16.1067%
DRC-1; 90'; concentration 5
  % inhibition Apol 90': 15.8932%
DRC-1; 90'; concentration 10
  % inhibition Apol 90': 47.3098%
DRC-1; 90'; concentration 20
  % inhibition Apol 90': 63.8014%
DRC-1; 90'; concentration 40
  % inhibition Apol 90': 80.4903%
DRC-1; 90'; concentration 80
  % inhibition Apol 90': 83.7363%
DRC-1; 180'; concentration 2.5
  % inhibition apPOL 180': 8.192%
DRC-1; 180'; concentration 5
  % inhibition apPOL 180': 3.59%
DRC-1; 180'; concentration 10
  % inhibition apPOL 180': 30.0435%
DRC-1; 180'; concentration 20
  % inhibition apPOL 180': 48.0622%
DRC-1; 180'; concentration 40
  % inhibition apPOL 180': 73.3106%
DRC-1; 180'; concentration 80
  % inhibition apPOL 180': 82.0141%
DRC-2, 40', concentration 5 (unit not given)
  % inhibition Apol 40': 36%
DRC-2, 40', concentration 20 (unit not given)
  % inhibition Apol 40': 59%
DRC-2, 90', concentration 20 (unit not given)
  % inhibition ApPOL 90': 59%
DRC-2; 5'; concentration 2.5
  % inhibition Apo pol 5': 27%
DRC-2; 5'; concentration 5
  % inhibition Apo pol 5': 36%
DRC-2; 5'; concentration 5 (unit not given)
  % inhibition Apo pol 5': 36%
DRC-2; 5'; concentration 10
  % inhibition Apo pol 5': 51%
DRC-2; 5'; concentration 20
  % inhibition Apo pol 5': 47%
DRC-2; 5'; concentration 40
  % inhibition Apo pol 5': 37%
DRC-2; 5'; concentration 80
  % inhibition Apo pol 5': 13%
DRC-2; 40'; concentration 2.5
  % inhibition Apol 40': 25%
DRC-2; 40'; concentration 5
  % inhibition Apol 40': 36%
DRC-2; 40'; concentration 10
  % inhibition Apol 40': 55%
DRC-2; 40'; concentration 20
  % inhibition Apol 40': 59%
DRC-2; 40'; concentration 40
  % inhibition Apol 40': 57%
DRC-2; 40'; concentration 80
  % inhibition Apol 40': 42%
DRC-2; 90'; concentration 2.5
  % inhibition ApPOL 90': 22%
DRC-2; 90'; concentration 5
  % inhibition ApPOL 90': 32%
DRC-2; 90'; concentration 10
  % inhibition ApPOL 90': 52%
DRC-2; 90'; concentration 20
  % inhibition ApPOL 90': 59%
DRC-2; 90'; concentration 40
  % inhibition ApPOL 90': 62%
DRC-2; 90'; concentration 80
  % inhibition ApPOL 90': 50%
DRC-2; 180'; concentration 2.5
  % inhibition apPOL 180': 11%
DRC-2; 180'; concentration 5
  % inhibition apPOL 180': 19%
DRC-2; 180'; concentration 10
  % inhibition apPOL 180': 41%
DRC-2; 180'; concentration 20
  % inhibition apPOL 180': 53%
DRC-2; 180'; concentration 40
  % inhibition apPOL 180': 64%
DRC-2; 180'; concentration 80
  % inhibition apPOL 180': 58%
[1]
  DNA Pol: 52
Primary screen value, head "DNA Pol", unit not given; 90 min, 10 µM
  DNA Pol: 52
